{
  "source": "patent US20170293715A1",
  "about": "“SYSTEMS, METHODS AND SOFTWARE FOR RANKING POTENTIAL GEROPROTECTIVE DRUGS” (Insilico Medicine, Inc., priority 2014, published 2017)",
  "format_in_all_cases": "cell-based",
  "key": {"FLT3 signaling pathway": {"test_system": "FLT3 signaling pathway", "experiment": "PAS score of FLT3 pathway in late-passage human fibroblasts cultured with putative geroprotectors", "design": "unit of the concentration uncertain", "details": "48 hours, aged human fibroblasts (aliquot C) vs aliquot A control", "procedure": "(§1) PASp=ΣNIInp×ARRnp×BTIFn×lg(CNRn)\n(§2) The culture of human fibroblasts was isolated from skin of a healthy adult donor and cultured for five passages in DMEM/F12 medium supplemented by 10% FBS. The tissue sample was obtained with the written consent of a donor according to EU and local ethical guidelines. An aliquot containing ˜10 million cells was frozen in liquid nitrogen (aliquot A), whereas the remaining part of the cell culture was grown for 20 additional passages in the same medium. The cells were then harvested and stored in liquid nitrogen (aliquot B). Aliquot B cells were then cultured for two additional passages and then cultured for 48 hours in the presence of four putative geroprotector drugs. The resulting cells were harvested (aliquot C). The transcriptomes of the aliquots A, B and C were investigated with the Illumina HT12 v4 gene expression microarrays (Illumina, USA). In such a way we profiled expression of the genes implicated in the functioning of the following ten signaling pathways: AHR, AKT, Circadian, DNA repair mechanisms, EGFR, ERK signaling, Estrogen pathway, FLT3, Growth hormone, Hedgehog.\n(§3) Zero PAS value means identical signaling pathway activation pattern in the older (aliquots B and C) and younger (aliquot A) fibroblasts."}, "[1]": {"test_system": "Circadian signaling pathway", "experiment": "PAS score of Circadian pathway in late-passage human fibroblasts cultured with putative geroprotectors", "details": "48 hours, aged human fibroblasts (aliquot C) vs aliquot A control", "procedure": "as §1, §2, §3"}, "[2]": {"test_system": "Hedgehog signaling pathway", "experiment": "PAS score of Hedgehog pathway in late-passage human fibroblasts cultured with putative geroprotectors", "design": "unit of the concentration uncertain", "details": "48 hours, aged human fibroblasts (aliquot C) vs aliquot A control", "procedure": "as §1\nThe culture of human fibroblasts was isolated from skin of a healthy adult donor and cultured for five passages in DMEM/F12 medium supplemented by 10% FBS. The tissue sample was obtained with the written consent of a donor according to EU and local ethical guidelines. An aliquot containing ˜10 million cells was frozen in liquid nitrogen (aliquot A), whereas the remaining part of the cell culture was grown for 20 additional passages in the same medium. The cells were then harvested and stored in liquid nitrogen (aliquot B). Aliquot B cells were then cultured for two additional passages and then cultured for 48 hours in the presence of four putative geroprotector drugs. The resulting cells were harvested (aliquot C). The transcriptomes of the aliquots A, B and C were investigated with the Illumina HT12 v4 gene expression microarrays (Illumina, USA). In such a way we profiled expression of the genes implicated in the functioning of the following ten signaling pathways: AHR, AKT, Circadian, DNA repair mechanisms, EGFR, ERK signaling, Estrogen pathway, FLT3, Growth hormone, Hedgehog. The information about pathway configuration and functional roles of the individual genes was taken from the public database provided by SABiosciences (SABiosciences, a Qiagen company. Using Student statistical criterion and a threshold p-value <0.05, we identified a list of the differential genes and calculated for them CNRn values. The set of gene expression data corresponding to the “aliquot A” group of samples was taken as the control. The data were processed with the algorithm for the calculation of PAS, and the following pathway activation data were obtained (Table 9).\nZero PAS value means identical signaling pathway activation pattern in the older (aliquots B and C) and younger (aliquot A) fibroblasts. […] The present invention proposes ranking of the geroprotector drugs according to their ability to compensate aging-related differences in signaling pathway activation reflected by the PAS values."}, "AHR signaling pathway": {"test_system": "AHR signaling pathway", "experiment": "PAS score of AHR pathway in late-passage human fibroblasts cultured with putative geroprotectors", "details": "48 hours, aged human fibroblasts (aliquot C) vs aliquot A control", "procedure": "as §1, §2, §3"}, "human skin fibroblasts": {"test_system": "human skin fibroblasts", "experiment": "Reversion of PAS patterns to the younger state, ranking of geroprotectors", "procedure": "(§4) The culture of human fibroblasts was isolated from skin of a healthy adult donor and cultured for five passages in DMEM/F12 medium supplemented by 10% FBS. The tissue sample was obtained with the written consent of a donor according to EU and local ethical guidelines. An aliquot containing ˜10 million cells was frozen in liquid nitrogen (aliquot A), whereas the remaining part of the cell culture was grown for 20 additional passages in the same medium. The cells were then harvested and stored in liquid nitrogen (aliquot B). Aliquot B cells were then cultured for two additional passages and then cultured for 48 hours in the presence of four putative geroprotector drugs. The resulting cells were harvested (aliquot C). […] The information about pathway configuration and functional roles of the individual genes was taken from the public database provided by SABiosciences (SABiosciences, a Qiagen company. Using Student statistical criterion and a threshold p-value <0.05, we identified a list of the differential genes and calculated for them CNRn values. The set of gene expression data corresponding to the “aliquot A” group of samples was taken as the control. The data were processed with the algorithm for the calculation of PAS, and the following pathway activation data were obtained (Table 9). […]"}, "[3]": {"test_system": "Growth hormone (GH) signaling pathway", "experiment": "PAS score of Growth hormone pathway in late-passage human fibroblasts cultured with putative geroprotectors", "details": "1 mM, 48 hours, aged human fibroblasts (aliquot C) vs aliquot A control", "procedure": "as §1, §4"}, "DNA repair mechanisms": {"test_system": "DNA repair mechanisms", "experiment": "PAS score of DNA repair pathway in late-passage human fibroblasts cultured with putative geroprotectors", "details": "1 mM, 48 hours, aged human fibroblasts (aliquot C) vs aliquot A control", "procedure": "as §1, §4"}},
  "note": "Values joined by “and” are separate entries in the source; they are usually repeats but may differ in a detail not shown here. Equal values may be shown once.",
  "data": [
    {"smiles": "O=C(O)c1nn(Cc2ccc(Cl)cc2Cl)c2ccccc12", "note": "[Lonidamine]", "values": [
      {"measurement": "PAS FLT3", "setting": "FLT3 signaling pathway; 5 (unit uncertain)", "value": "−1"},
      {"measurement": "PAS Circadian", "setting": "[1]; 5 mM", "value": "5 and 7"},
      {"measurement": "PAS Hedgehog", "setting": "[2]; 5 (unit uncertain)", "value": "17 and 22"},
      {"measurement": "PAS AHR", "setting": "AHR signaling pathway; 5 mM", "value": "2 and 4"}
    ]},
    {"smiles": "Oc1ccc(C=Cc2cc(O)cc(O)c2)cc1", "note": "[Resveratrol]", "values": [
      {"measurement": "pathways whose PAS patterns were better reverted to the younger state", "setting": "human skin fibroblasts; 1 mM, of the ten pathways tested", "value": "7/10"},
      {"measurement": "ranking as geroprotector among the four tested", "setting": "human skin fibroblasts; combined experimental and biomathematical system", "value": "best putative geroprotector drug"},
      {"measurement": "PAS FLT3", "setting": "FLT3 signaling pathway; 1 (unit uncertain)", "value": 2},
      {"measurement": "PAS Circadian", "setting": "[1]; 1 mM", "value": 4},
      {"measurement": "PAS Hedgehog", "setting": "[2]; 1 (unit uncertain)", "value": "9 and 11"}
    ]},
    {"smiles": "NCCCCNCCCN", "note": "[Spermidine]", "values": [
      {"measurement": "PAS GH", "setting": "[3]", "value": "−9"},
      {"measurement": "PAS Circadian", "setting": "[1]; 1 mM", "value": "5 and 8"},
      {"measurement": "PAS DNA repair", "setting": "DNA repair mechanisms", "value": "−10"},
      {"measurement": "PAS Hedgehog", "setting": "[2]; 1 (unit uncertain)", "value": "17 and 18"},
      {"measurement": "PAS AHR", "setting": "AHR signaling pathway; 1 mM", "value": "3 and 2"}
    ]},
    {"smiles": "COC[C@H]1OC(=O)c2coc3c2[C@@]1(C)C1=C(C3=O)[C@@H]2CCC(=O)[C@@]2(C)C[C@H]1OC(C)=O", "note": "[Wortmannin]", "values": [
      {"measurement": "PAS Circadian", "setting": "[1]; 0.5 mM", "value": "6 and 5"},
      {"measurement": "PAS Hedgehog", "setting": "[2]; 0.5 (unit uncertain)", "value": "12 and 10"},
      {"measurement": "PAS AHR", "setting": "AHR signaling pathway; 0.5 mM", "value": "1 and 2"}
    ]}
  ]
}
